This experiment has as its target T1, rat NaPi-2b (Rattus norvegicus, UniProt Q9JJ09).
T1 construct: expressed in transfected cells; host or cells: Xenopus oocytes injected with cRNA
T1 sequence (Q9JJ09 1-695): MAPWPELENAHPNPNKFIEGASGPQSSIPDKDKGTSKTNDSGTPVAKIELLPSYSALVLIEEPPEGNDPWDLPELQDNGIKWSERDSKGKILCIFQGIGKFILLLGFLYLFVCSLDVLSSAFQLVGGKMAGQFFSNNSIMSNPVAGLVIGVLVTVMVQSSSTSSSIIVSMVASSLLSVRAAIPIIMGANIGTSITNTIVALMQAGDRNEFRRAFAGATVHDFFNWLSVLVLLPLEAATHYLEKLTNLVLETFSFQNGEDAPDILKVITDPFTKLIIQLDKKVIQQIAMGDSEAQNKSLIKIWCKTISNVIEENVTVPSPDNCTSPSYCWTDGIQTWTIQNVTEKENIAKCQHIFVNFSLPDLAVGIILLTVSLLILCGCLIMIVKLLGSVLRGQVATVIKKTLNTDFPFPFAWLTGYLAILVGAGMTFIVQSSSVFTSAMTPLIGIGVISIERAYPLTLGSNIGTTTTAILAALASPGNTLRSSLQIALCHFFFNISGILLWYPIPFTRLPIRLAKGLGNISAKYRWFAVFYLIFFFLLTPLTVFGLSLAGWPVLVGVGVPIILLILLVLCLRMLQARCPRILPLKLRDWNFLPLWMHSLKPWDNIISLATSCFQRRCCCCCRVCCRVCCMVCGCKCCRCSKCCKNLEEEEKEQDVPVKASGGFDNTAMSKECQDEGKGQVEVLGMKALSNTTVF
In words: Sodium-dependent phosphate uptake of Xenopus oocytes which expressed NaPi-2b (32P). Format: cell-based. To be noted: Xenopus oocytes expressing rat NaPi-2b, 32P radioactive phosphorus; read-out: IC50 (phosphate uptake inhibitory activity). The procedure:
Pharmacological Test Example 1
Experiment of Sodium-Dependent Phosphate Uptake of Xenopus oocytes which Expressed NaPi-2b
Degenerate primers were prepared from sequences of mouse NaPi-2b disclosed in Hilfiker H. et al., Pro Natl Acad Sci USA, 95 (24): 14564-14569, […] and sequences of human and rat NaPi-2a disclosed in Magagnin S. et al., Proc Natl Aca Sci USA, 90 (13): 5979-5983, 1993. RNA was extracted from the rat small intestine using ISOGEN; manufactured by NIPPON GENE CO., LTD (Japan). 400 bp gene fragments were obtained by PCR using, as a template, a cDNA library prepared with a cDNA synthesis kit (manufactured by STRATAGENE (US)). Thereafter, the above rat small intestine cDNA library was screened using the gene fragment as a probe, and the whole gene sequence of rat NaPi-2b was cloned. cRNA was synthesized from the cloned rat NaPi-2b cDNA with a cRNA synthesis kit (manufactured by Ambion (US)). The synthesized cRNA was injected into Xenopus oocytes (obtained from COPACETIC (Japan)) with a liquid microinjector (manufactured by Drummond (US)) and was cultured for 2 days to express rat NaPi-2b. Thereafter, for a group of derivatives, phosphate uptake inhibitory activity were measured using the Xenopus oocytes with ^32P radioactive phosphorus (manufactured by Daiichi Kagaku Inc. (Japan)). […] The inhibitory activity for 300 μM and 100 μM was determined from the same inhibition curve and expressed in percentage inhibition (%) in Table 5.

Consider `COc1ccc(C(=O)Nc2ccc(Br)cc2C(=O)N/N=C/c2cccc(O)c2)cc1OC` [Compound 63, N-[4-Bromo-2-(3-hydroxy-benzylidene-hydrazinocarbonyl)-phenyl]-3,4-dimethoxy-benzamide], for which the concentration for half-maximal inhibition (IC50) amounted to 5.97 µM.

In the case of `COc1ccc(C(=O)Nc2ccc(Br)cc2C(=O)N/N=C/c2ccc(O)cc2)cc1OC` [Compound 64, N-[4-Bromo-2-(4-hydroxy-benzylidene-hydrazinocarbonyl)-phenyl]-3,4-dimethoxy-benzamide], the IC50 turned out to be 3.77 µM.

As to `COc1ccc(C(=O)Nc2ccc(Cl)cc2C(=O)N/N=C/c2cccc(F)c2)cc1OC` [Compound 65, N-[4-Chloro-2-(3-fluoro-benzylidene-hydrazinocarbonyl)-phenyl]-3,4-dimethoxy-benzamide], the IC50 is 1.29 µM.

Turning to `COc1ccc(C(=O)Nc2ccc(Cl)cc2C(=O)N/N=C/c2ccc(F)cc2)cc1OC` [Compound 66, N-[4-Chloro-2-(4-fluoro-benzylidene-hydrazinocarbonyl)-phenyl]-3,4-dimethoxy-benzamide], the half-maximal inhibitory concentration (IC50) amounted to 0.89 µM.

Turning to `COc1ccc(C(=O)Nc2ccc(Cl)cc2C(=O)N/N=C/c2cccc(C)c2)cc1OC` [Compound 67, N-[4-Chloro-2-(3-methyl-benzylidene-hydrazinocarbonyl)-phenyl]-3,4-dimethoxy-benzamide], the half-inhibitory concentration (IC50) was found to be 0.65 µM.

On to `COc1ccc(C(=O)Nc2ccc(Cl)cc2C(=O)N/N=C/c2cccc(O)c2)cc1OC` [Compound 69, N-[4-Chloro-2-(3-hydroxy-benzylidene-hydrazinocarbonyl)-phenyl]-3,4-dimethoxy-benzamide], for which the half-maximal inhibitory concentration (IC50) was 3.93 µM.

On to `COc1ccc(C(=O)Nc2ccc(Cl)cc2C(=O)N/N=C/c2ccc(O)cc2)cc1OC` [Compound 70, N-[4-Chloro-2-(4-hydroxy-benzylidene-hydrazinocarbonyl)-phenyl]-3,4-dimethoxy-benzamide], for which the IC50 was found to be 9.51 µM.

For the compound `COc1ccc(C(=O)Nc2cc(Cl)ccc2C(=O)N/N=C/c2cccc(F)c2)cc1OC` [Compound 71, N-[5-Chloro-2-(3-fluoro-benzylidene-hydrazinocarbonyl)-phenyl]-3,4-dimethoxy-benzamide], the concentration for half-maximal inhibition (IC50) is 12.3 µM.

In the case of `COc1ccc(C(=O)Nc2cc(Cl)ccc2C(=O)N/N=C/c2ccc(F)cc2)cc1OC` [Compound 72, N-[5-Chloro-2-(4-fluoro-benzylidene-hydrazinocarbonyl)-phenyl]-3,4-dimethoxy-benzamide], the IC50 was determined as 10.4 µM.

In the case of `COc1ccc(C(=O)Nc2cc(Cl)ccc2C(=O)N/N=C/c2cccc(C)c2)cc1OC` [Compound 73, N-[5-Chloro-2-(3-methyl-benzylidene-hydrazinocarbonyl)-phenyl]-3,4-dimethoxy-benzamide], the IC50 came to 1.75 µM.

Take `COc1ccc(C(=O)Nc2cc(Cl)ccc2C(=O)N/N=C/c2ccc(C)cc2)cc1OC` [Compound 74, N-[5-Chloro-2-(4-methyl-benzylidene-hydrazinocarbonyl)-phenyl]-3,4-dimethoxy-benzamide]: the half-maximal inhibitory concentration (IC50) is 2.15 µM.

For the compound `COc1ccc(C(=O)Nc2cc(Cl)ccc2C(=O)N/N=C/c2cccc(O)c2)cc1OC` [Compound 75, N-[5-Chloro-2-(3-hydroxy-benzylidene-hydrazinocarbonyl)-phenyl]-3,4-dimethoxy-benzamide], the IC50 was found to be 12.8 µM.

Take `O=C(Nc1ccccc1C(=O)N/N=C/c1cccc(F)c1)c1ccc(F)cc1` [Compound 76, 4-Fluoro-N-[2-(3-fluoro-benzylidene-hydrazinocarbonyl)-phenyl]-benzamide]: the IC50 stood at 13.2 µM.

As for `O=C(Nc1ccccc1C(=O)N/N=C/c1ccc(F)cc1)c1ccc(F)cc1` [Compound 77, 4-Fluoro-N-[2-(4-fluoro-benzylidene-hydrazinocarbonyl)-phenyl]-benzamide], the IC50 turned out to be 3.01 µM.

On to `Cc1cccc(/C=N/NC(=O)c2ccccc2NC(=O)c2ccc(F)cc2)c1` [Compound 78, 4-Fluoro-N-[2-(3-methyl-benzylidene-hydrazinocarbonyl)-phenyl]-benzamide], for which the IC50 came to 7.17 µM.

`Cc1ccc(/C=N/NC(=O)c2ccccc2NC(=O)c2ccc(F)cc2)cc1` [Compound 79, 4-Fluoro-N-[2-(4-methyl-benzylidene-hydrazinocarbonyl)-phenyl]-benzamide]: the concentration for half-maximal inhibition (IC50) worked out at 2.87 µM.

For the compound `O=C(Nc1ccccc1C(=O)N/N=C/c1cccc(O)c1)c1ccc(F)cc1` [Compound 80, 4-Fluoro-N-[2-(3-hydroxy-benzylidene-hydrazinocarbonyl)-phenyl]-benzamide], the IC50 turned out to be 10.9 µM.

Turning to `O=C(Nc1ccccc1C(=O)N/N=C/c1cccc(F)c1)c1cccc(F)c1` [Compound 81, 3-Fluoro-N-[2-(3-fluoro-benzylidene-hydrazinocarbonyl)-phenyl]-benzamide], the IC50 was 5.65 µM.

With `O=C(Nc1ccccc1C(=O)N/N=C/c1ccc(F)cc1)c1cccc(F)c1` [Compound 82, 3-Fluoro-N-[2-(4-fluoro-benzylidene-hydrazinocarbonyl)-phenyl]-benzamide], the IC50 was determined as 6.03 µM.

As to `Cc1cccc(/C=N/NC(=O)c2ccccc2NC(=O)c2cccc(F)c2)c1` [Compound 83, 3-Fluoro-N-[2-(3-methyl-benzylidene-hydrazinocarbonyl)-phenyl]-benzamide], the IC50 worked out at 2.98 µM.

With `Cc1ccc(/C=N/NC(=O)c2ccccc2NC(=O)c2cccc(F)c2)cc1` [Compound 84, 3-Fluoro-N-[2-(4-methyl-benzylidene-hydrazinocarbonyl)-phenyl]-benzamide], the IC50 came out at 8.42 µM.

In the case of `O=C(Nc1ccccc1C(=O)N/N=C/c1cccc(O)c1)c1cccc(F)c1` [Compound 85, 3-Fluoro-N-[2-(3-hydroxy-benzylidene-hydrazinocarbonyl)-phenyl]-benzamide], the half-maximal inhibitory concentration (IC50) stood at 2 µM.

Turning to `O=C(Nc1ccccc1C(=O)N/N=C/c1ccc(O)cc1)c1cccc(F)c1` [Compound 86, 3-Fluoro-N-[2-(4-hydroxy-benzylidene-hydrazinocarbonyl)-phenyl]-benzamide], the IC50 was 11.4 µM.

As to `COc1ccc(C(=O)Nc2ccc(Br)cc2C(=O)N/N=C/c2ccc(Cl)c(C(F)(F)F)c2)cc1OC` [Compound 87, N-[4-Bromo-2-(4-chloro-3-trifluoromethyl-benzylidene-hydrazinocarbonyl)-phenyl]-3,4-dimethoxy-benzamide], the IC50 is 0.29 µM.

For the compound `COc1cc(OC)cc(C(=O)Nc2ccccc2C(=O)N/N=C/c2ccc(Cl)c(C(F)(F)F)c2)c1` [Compound 89, N-[2-(4-Chloro-3-trifluoromethyl-benzylidene-hydrazinocarbonyl)-phenyl]-3,5-dimethoxy-benzamide], the concentration for half-maximal inhibition (IC50) amounted to 1.11 µM.

Take `COc1ccc(C(=O)Nc2ccccc2C(=O)N/N=C/c2ccc(Cl)c(C(F)(F)F)c2)cc1` [Compound 90, N-[2-(4-Chloro-3-trifluoromethyl-benzylidene-hydrazinocarbonyl)-phenyl]-4-methoxy-benzamide]: the IC50 was 3.42 µM.

Take `COc1cc(OC)cc(C(=O)Nc2ccccc2C(=O)N/N=C/c2ccc(C)c(C)c2)c1` [Compound 93, N-[2-(3,4-Dimethyl-benzylidene-hydrazinocarbonyl)-phenyl]-3,5-dimethoxy-benzamide]: the IC50 was found to be 11 µM.

On to `COc1ccc(C(=O)Nc2ccccc2C(=O)N/N=C/c2ccc(C)c(C)c2)cc1` [Compound 94, N-[2-(3,4-Dimethyl-benzylidene-hydrazinocarbonyl)-phenyl]-4-methoxy-benzamide], for which the concentration for half-maximal inhibition (IC50) stood at 5.63 µM.

For `Cc1ccc(/C=N/NC(=O)c2ccccc2NC(=O)c2cccc(F)c2)cc1C` [Compound 95, N-[2-(3,4-Dimethyl-benzylidene-hydrazinocarbonyl)-phenyl]-3-fluoro-benzamide], the IC50 stood at 1.27 µM.

Take `Cc1ccc(/C=N/NC(=O)c2ccccc2NC(=O)c2ccc(F)cc2)cc1C` [Compound 96, N-[2-(3,4-Dimethyl-benzylidene-hydrazinocarbonyl)-phenyl]-4-fluoro-benzamide]: the IC50 amounted to 5.94 µM.

Source of the values: US8134015B2, “Compound inhibiting in vivo phosphorous transport and medicine containing the same” (Kyowa Hakko Kirin Co., Ltd., priority 2003, dated 2012).
